The source made the active and inactive calls.
Columns and labels:
Fatty acid synthase [1] = target: T1, Fatty acid synthase (Homo sapiens, UniProt P49327); assay: FAS thioesterase domain inhibitors, dose response, biochemical, endpoint fluorescence intensity, uHTS hits (AID 624327); format: functional;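 further: fluorescence from hydrolysis of an O-methyl fluorescein acyl ester substrate by the enzyme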
Fatty acid synthase [2] = target: T1, Fatty acid synthase; assay: FAS thioesterase domain inhibitors, dose response, biochemical, kinetic fluorescence intensity (AID 624326); format: functional;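 further: rate of fluorescence rise from hydrolysis of a fluorogenic O-methyl fluorescein ester substrate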
[3] = target: T2, Histone-lysine N-methyltransferase NSD2 (Homo sapiens, UniProt O96028); format: biochemical
T2 sequence (O96028 whole entry): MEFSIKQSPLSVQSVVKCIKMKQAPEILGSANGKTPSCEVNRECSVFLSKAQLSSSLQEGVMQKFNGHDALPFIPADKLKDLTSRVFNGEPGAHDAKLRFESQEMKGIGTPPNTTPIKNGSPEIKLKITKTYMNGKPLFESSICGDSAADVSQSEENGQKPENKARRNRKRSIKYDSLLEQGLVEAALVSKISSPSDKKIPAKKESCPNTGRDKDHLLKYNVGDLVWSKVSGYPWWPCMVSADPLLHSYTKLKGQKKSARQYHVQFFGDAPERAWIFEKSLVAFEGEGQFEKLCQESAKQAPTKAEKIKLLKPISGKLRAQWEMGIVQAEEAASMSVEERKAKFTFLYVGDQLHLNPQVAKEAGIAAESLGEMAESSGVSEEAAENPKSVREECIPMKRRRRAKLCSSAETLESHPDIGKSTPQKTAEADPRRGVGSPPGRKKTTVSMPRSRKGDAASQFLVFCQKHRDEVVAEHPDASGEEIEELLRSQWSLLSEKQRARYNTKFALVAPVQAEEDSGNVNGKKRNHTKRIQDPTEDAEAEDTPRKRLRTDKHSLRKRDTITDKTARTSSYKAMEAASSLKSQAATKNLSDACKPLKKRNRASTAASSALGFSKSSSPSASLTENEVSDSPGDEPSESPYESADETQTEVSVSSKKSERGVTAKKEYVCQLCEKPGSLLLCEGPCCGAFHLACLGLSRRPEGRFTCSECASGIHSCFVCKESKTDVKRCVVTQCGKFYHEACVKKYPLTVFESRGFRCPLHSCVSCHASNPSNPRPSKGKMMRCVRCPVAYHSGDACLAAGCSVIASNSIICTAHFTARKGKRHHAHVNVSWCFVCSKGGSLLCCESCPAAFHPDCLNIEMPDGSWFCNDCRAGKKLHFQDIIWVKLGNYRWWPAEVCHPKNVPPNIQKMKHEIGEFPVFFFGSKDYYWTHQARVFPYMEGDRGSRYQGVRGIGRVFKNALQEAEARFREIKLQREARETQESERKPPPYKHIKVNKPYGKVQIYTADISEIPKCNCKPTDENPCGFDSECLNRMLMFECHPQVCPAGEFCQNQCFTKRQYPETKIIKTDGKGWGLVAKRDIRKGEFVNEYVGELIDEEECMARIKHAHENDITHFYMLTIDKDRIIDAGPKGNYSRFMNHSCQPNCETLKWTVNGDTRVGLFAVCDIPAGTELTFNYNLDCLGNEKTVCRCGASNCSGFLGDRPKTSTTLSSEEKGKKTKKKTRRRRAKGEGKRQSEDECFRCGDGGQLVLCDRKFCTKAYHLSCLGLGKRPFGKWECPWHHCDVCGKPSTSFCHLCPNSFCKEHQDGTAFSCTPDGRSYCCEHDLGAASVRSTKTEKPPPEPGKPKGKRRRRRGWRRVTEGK

cells = format: functional
[4] = ZM109 Env clade C HIV-1 fusion inhibitors, dose response, HeLa effector, CEM target cells, luciferase, cherry-pick (AID 652058); format: functional, cell-based
[5] = inhibitors of clade B AD8 Env fusion, dose response, cell-based, cherry-pick (AID 652062); format: functional;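 further: luciferase signal from cell-cell fusion driven by HIV-1 clade B AD8 Env; potency is for inhibitors of fusion seen as a drop in luminescence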
[6] = inhibitors of HIV Env-driven cell fusion, dose response, cherry-pick (AID 652057); format: functional, cell-based
Streptococcus = assay: Group A Streptococcus viability loss, dose response, counter-screen for streptokinase expression inhibitor project, luminescence, BacTiterGlo (AID 1915); format: functional, organism-based;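 further: potency for reduction of bacterial viability or growth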
[7] = test system: Streptococcus sp. 'group A'; assay: growth inhibition of control SK(-) GAS strain, dose response, counter-screen for streptokinase expression inhibitor project, luminescence, kanamycin, BacTiterGlo, confirmation (AID 1900); format: functional, organism-based
[8] = target: T3, Polyadenylate-binding protein 1 (Homo sapiens, UniProt P11940); assay: PABP1 MLLE–PAM2 interaction inhibitors, dose response, miRNA deadenylation inhibitor project, biochemical, fluorescence polarization, Cy5-PAM2 peptide, secondary (AID 602260); format: functional; conditions: read-out: IC50_Mean
T3 sequence (P11940 whole entry): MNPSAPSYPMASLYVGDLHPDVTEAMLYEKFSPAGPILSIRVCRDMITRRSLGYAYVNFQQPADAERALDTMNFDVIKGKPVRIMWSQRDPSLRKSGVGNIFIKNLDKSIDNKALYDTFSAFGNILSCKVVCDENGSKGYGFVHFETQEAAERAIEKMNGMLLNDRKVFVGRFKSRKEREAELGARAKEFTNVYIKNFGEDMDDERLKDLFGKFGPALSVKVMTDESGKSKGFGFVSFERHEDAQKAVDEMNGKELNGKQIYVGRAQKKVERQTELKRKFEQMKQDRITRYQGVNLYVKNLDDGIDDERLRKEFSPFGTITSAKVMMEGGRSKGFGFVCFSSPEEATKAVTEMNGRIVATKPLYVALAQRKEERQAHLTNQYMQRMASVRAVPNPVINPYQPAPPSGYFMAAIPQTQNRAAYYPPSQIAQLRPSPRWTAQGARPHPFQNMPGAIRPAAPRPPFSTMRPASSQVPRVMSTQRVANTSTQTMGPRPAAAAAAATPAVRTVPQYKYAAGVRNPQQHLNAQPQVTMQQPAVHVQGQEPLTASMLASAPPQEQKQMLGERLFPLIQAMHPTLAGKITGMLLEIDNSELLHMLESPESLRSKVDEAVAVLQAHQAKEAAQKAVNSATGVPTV

[9] = target: T3, Polyadenylate-binding protein 1; assay: PABP1 MLLE–PAM2 binding inhibitor potency, dose response, biochemical, fluorescence polarization, FITC-PAM2 peptide (AID 602259); format: functional; conditions: read-out: IC50_Mean
[10] = target: T4, Heat shock factor protein 1 (Mus musculus, UniProt P38532); assay: HSF1 potentiators in luciferase reporter cells, confirmation, cell-based, NIH3T3, luminescence, dose retest (AID 435004); format: functional;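 further: stress induced by proteasome inhibitor MG132 added 30 min after compound; luciferase reporter driven by HSF1 response element in NIH3T3 cells; actives raise luminescence as potentiators of the MG132 stress response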
T4 sequence (P38532 whole entry): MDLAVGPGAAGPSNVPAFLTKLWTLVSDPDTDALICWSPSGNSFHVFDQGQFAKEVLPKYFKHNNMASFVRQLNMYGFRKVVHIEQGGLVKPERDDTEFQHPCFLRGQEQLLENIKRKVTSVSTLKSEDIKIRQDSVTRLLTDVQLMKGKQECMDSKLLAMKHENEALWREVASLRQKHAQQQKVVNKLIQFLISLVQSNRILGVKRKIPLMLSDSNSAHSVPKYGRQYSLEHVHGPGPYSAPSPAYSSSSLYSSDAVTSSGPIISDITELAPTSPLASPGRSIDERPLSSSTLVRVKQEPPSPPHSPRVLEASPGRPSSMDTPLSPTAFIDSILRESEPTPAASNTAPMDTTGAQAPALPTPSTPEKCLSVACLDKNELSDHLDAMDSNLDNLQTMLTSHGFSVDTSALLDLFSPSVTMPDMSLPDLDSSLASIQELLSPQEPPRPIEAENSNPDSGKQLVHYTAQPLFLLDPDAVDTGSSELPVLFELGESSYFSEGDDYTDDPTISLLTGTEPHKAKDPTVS

[11] = target: T5, Replicative DNA helicase DnaB (Mycobacterium tuberculosis, UniProt P9WMR3); assay: DnaB intein splicing inhibitors, dose response, biochemical, cell-free fluorescence (AID 449749); format: functional
T5 sequence (P9WMR3 whole entry): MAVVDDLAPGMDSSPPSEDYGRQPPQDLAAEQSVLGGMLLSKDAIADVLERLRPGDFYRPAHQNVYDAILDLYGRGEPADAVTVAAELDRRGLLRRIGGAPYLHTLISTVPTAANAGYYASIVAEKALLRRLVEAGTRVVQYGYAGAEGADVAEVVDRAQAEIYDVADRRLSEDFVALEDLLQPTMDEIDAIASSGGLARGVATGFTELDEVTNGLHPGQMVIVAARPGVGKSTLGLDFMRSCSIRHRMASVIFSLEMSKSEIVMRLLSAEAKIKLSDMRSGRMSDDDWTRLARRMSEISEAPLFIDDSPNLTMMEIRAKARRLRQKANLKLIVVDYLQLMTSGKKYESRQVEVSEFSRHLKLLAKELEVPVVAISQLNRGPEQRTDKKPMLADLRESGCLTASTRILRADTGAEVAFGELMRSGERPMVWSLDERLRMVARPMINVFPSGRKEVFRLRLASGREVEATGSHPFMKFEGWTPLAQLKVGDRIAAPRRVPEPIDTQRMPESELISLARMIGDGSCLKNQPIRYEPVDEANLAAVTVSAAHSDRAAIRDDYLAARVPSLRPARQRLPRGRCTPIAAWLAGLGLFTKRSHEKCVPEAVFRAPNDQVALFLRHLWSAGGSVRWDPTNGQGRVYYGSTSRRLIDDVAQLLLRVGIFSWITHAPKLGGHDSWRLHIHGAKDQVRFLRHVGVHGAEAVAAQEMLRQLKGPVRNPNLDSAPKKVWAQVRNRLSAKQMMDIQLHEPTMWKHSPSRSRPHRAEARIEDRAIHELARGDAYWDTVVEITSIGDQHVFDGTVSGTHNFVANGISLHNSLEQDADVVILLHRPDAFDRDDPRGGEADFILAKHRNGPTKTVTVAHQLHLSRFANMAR

Protein RecA = target: T6, Protein RecA (Mycobacterium tuberculosis, UniProt P9WHJ3); assay: Fluorescence Cell-Free Homogeneous Dose Retest to Identify Inhibitors of RecA-Intein Splicing Activity. [Related pubchem assays (depositor defined):AID2097, AID2223, AID489010, AID492950]; format: functional
T6 sequence (P9WHJ3 whole entry): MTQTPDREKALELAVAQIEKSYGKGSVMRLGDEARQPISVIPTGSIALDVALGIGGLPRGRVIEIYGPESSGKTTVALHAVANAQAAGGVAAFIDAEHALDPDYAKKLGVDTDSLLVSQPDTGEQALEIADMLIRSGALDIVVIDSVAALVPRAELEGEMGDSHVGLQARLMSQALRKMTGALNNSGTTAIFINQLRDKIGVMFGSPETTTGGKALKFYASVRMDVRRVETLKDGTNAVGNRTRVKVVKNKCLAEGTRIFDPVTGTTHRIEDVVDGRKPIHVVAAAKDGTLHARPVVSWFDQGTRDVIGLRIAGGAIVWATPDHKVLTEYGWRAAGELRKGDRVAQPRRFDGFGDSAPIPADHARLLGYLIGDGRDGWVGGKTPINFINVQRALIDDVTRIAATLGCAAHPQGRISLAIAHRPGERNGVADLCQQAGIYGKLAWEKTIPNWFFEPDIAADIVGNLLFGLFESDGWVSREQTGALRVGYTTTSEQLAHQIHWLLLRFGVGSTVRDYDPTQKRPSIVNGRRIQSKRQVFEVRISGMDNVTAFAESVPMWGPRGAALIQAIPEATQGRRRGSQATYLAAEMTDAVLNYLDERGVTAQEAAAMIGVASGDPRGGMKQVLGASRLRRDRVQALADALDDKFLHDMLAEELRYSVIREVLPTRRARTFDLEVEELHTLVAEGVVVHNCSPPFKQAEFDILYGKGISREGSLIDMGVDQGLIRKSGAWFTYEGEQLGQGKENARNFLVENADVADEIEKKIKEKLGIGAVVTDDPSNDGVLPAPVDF

INS1 = assay: beta cell apoptosis inhibitors, cytokine rescue, dose response, luminescence, retest (AID 449756); format: functional, cell-based; conditions: Rattus norvegicus;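 further: cell death triggered by IL-1 beta plus TNF-alpha plus IFN-gamma mixture; protective hits raise ATP signal compared with cytokine alone wells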
[12] = Luminescence Cell-Based Dose Retest to Confirm Inhibitors of Cancer Stem Cells. [Related pubchem assays (depositor defined):AID2717, AID2721]; format: functional; conditions: Homo sapiens

T1 sequence (P49327 whole entry, the tested form may be a part): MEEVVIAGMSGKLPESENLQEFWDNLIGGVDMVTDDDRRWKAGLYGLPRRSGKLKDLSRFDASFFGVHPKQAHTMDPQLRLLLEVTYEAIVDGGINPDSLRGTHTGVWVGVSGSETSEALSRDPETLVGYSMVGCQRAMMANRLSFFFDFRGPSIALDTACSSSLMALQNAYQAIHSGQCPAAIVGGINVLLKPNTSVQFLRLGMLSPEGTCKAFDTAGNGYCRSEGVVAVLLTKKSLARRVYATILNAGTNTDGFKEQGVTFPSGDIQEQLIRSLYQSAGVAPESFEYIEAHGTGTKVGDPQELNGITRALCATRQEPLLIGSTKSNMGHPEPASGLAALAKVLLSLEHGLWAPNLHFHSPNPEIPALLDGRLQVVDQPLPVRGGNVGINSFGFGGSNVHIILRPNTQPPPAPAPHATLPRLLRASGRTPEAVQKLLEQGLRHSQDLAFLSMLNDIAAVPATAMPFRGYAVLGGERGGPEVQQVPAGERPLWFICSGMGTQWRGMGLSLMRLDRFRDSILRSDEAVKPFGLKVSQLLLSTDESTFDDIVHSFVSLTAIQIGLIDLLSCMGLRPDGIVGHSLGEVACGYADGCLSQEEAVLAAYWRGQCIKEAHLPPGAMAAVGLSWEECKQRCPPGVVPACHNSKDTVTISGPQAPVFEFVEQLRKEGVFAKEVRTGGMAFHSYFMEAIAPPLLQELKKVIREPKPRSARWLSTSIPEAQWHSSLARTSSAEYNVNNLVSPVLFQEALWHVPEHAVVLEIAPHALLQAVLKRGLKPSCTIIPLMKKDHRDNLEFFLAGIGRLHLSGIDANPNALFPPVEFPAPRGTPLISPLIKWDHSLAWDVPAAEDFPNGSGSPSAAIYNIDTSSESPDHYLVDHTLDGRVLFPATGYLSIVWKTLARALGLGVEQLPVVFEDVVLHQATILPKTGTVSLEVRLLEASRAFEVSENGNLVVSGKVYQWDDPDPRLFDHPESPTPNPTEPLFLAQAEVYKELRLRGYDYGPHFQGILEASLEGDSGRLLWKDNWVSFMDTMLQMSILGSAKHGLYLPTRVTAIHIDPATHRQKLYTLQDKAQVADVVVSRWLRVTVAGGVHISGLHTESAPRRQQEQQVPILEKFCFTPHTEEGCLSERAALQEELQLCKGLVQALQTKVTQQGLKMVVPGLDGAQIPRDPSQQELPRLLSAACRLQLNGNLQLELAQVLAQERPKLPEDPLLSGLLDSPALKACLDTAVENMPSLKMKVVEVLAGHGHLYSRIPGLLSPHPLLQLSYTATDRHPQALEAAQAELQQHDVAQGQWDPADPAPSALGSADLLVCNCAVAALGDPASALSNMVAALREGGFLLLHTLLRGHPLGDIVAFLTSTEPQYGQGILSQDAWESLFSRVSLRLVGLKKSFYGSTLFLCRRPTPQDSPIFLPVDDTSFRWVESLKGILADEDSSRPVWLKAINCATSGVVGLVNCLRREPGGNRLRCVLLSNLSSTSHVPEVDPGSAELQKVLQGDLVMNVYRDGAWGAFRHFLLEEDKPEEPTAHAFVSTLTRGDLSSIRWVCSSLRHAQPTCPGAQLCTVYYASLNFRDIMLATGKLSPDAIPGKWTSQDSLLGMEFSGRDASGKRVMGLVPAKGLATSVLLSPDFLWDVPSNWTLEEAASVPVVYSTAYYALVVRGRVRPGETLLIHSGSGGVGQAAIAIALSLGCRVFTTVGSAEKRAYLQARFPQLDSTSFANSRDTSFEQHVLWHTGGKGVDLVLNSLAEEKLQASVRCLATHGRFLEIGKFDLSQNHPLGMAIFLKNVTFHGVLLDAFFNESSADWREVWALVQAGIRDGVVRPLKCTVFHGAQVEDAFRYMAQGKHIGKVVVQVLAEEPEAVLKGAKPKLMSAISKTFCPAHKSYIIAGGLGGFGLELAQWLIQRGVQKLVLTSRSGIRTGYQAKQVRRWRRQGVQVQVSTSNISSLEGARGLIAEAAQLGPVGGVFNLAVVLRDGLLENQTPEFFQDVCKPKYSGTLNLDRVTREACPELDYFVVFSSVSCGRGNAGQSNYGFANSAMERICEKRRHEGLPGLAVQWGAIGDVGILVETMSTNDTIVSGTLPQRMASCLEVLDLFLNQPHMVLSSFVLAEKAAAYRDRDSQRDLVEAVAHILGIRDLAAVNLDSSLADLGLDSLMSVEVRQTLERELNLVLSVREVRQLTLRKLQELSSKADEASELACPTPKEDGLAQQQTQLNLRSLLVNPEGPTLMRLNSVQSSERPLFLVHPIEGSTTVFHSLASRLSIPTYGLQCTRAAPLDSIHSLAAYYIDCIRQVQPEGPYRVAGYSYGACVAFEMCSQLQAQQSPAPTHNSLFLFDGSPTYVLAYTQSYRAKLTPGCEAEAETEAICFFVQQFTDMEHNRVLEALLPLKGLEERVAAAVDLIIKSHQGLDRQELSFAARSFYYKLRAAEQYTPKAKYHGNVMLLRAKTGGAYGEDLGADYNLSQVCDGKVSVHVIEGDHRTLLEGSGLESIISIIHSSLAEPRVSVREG

O=C(COC(=O)c1cc([N+](=O)[O-])ccc1N1CCOCC1)NCCc1ccccc1
IC50 (Fatty acid synthase [1]): 1.98 µM (active)
IC50 (Fatty acid synthase [2]): 2.6 µM (active)

CCN(CC)CCSc1nc2ccccc2c(=S)n1-c1ccccc1
AC50 [3]: > 20 µM (inactive)

O=C(OCC(=O)N1CCN(c2ccccc2)CC1)c1cccc([N+](=O)[O-])c1
IC50 (Fatty acid synthase [1]): 7.7 µM (active)
IC50 (Fatty acid synthase [2]): 11.9 µM (active)

CC(NC(=O)c1cc([N+](=O)[O-])cc([N+](=O)[O-])c1)c1ccc(-n2ccnc2)cc1 (stereo not given)
IC50 (cells): 1.43 µM (active)
IC50 (Fatty acid synthase [1]): 10.1 µM (active)
IC50 (Fatty acid synthase [2]): 6.68 µM (active)

O=[N+]([O-])c1cccc(CN2CC=C(c3ccc(F)cc3)CC2)c1
IC50 (Fatty acid synthase [1]): 11.4 µM (active)
IC50 (Fatty acid synthase [2]): 9.86 µM (active)

N#Cc1cc(Oc2ccc(Cl)cc2)c(N2CCOCC2)cc1C#N
IC50 (Fatty acid synthase [1]): 4.35 µM (active)
IC50 (Fatty acid synthase [2]): 4.83 µM (active)

Cc1oc(-c2ccccc2F)nc1CN1CCC(C(=O)NCCC2=CCCCC2)CC1
AC50 [4]: 4.91 µM (active)
AC50 [5]: 1.28 µM (active)
AC50 [6]: 5.29 µM (active)

CCCOc1ccc(C(=O)NNC(=S)NC(=O)c2cc(-c3ccc(Cl)cc3)nc3ccccc23)cc1
EC50 (Streptococcus): < 60 nM (active)
EC50 [7]: < 60 nM (active)
IC50 [8]: > 66 µM (inactive)
IC50 [9]: > 66 µM (inactive)

O=C(/C=C/c1cccc([N+](=O)[O-])c1)NC(=S)Nc1ccc(CN2CCOCC2)cc1
EC50 [10]: 14.6 µM (active)
IC50 [8]: > 66 µM (inactive)
IC50 [9]: > 66 µM (inactive)

CNCc1ccccc1OCc1ccc(F)cc1
AC50 [3]: > 20 µM (inactive)

CNCc1ccc(OCc2ccccc2)c(OC)c1
AC50 [3]: > 20 µM (inactive)

COc1ccc([N+](=O)[O-])cc1C(=O)NCCOc1ccc(Cl)cc1
IC50 (Fatty acid synthase [1]): 5.95 µM (active)
IC50 (Fatty acid synthase [2]): 7.34 µM (active)

CCN1Cc2c(/C=C/c3ccccc3)nc3ccc(OC)cc3c2N(c2cccc(Cl)c2)C1
AC50 [11]: > 380 µM (inactive)
EC50 (Protein RecA): 17.6 µM (active)
IC50 (Fatty acid synthase [1]): 2.35 µM (active)
IC50 (Fatty acid synthase [2]): 3.61 µM (active)

COc1ccc(S(=O)(=O)Nc2ccc3c(c2)CC(=O)N([C@@H](C)CO)C[C@H](C)[C@H](CN(C)S(=O)(=O)c2ccc(F)cc2)O3)cc1
AC50 [4]: 11.4 µM (active)
AC50 [5]: 18.6 µM (active)
AC50 [6]: 10 µM (active)

O=S(=O)([N-]c1nc2ccccc2nc1-[n+]1ccc(Cc2ccccc2)cc1)c1ccc(Br)s1
AC50 (INS1): 6.81 µM (active)
IC50 [8]: > 66 µM (inactive)
IC50 [9]: 52.3 µM (inactive)
AC50 [12]: 6.23 µM (active)

Cc1cc([N+](=O)[O-])cc2c1NC(=O)C2(O)N1CCOCC1 (stereo not given)
AC50 [3]: 15.7 µM (active)

COc1ccc(CN2CC(=O)N3[C@H]4c5ccccc5OC[C@@H]4[C@H](c4ccccc4)[C@]3(C)C2=O)cc1
IC50 [8]: > 66 µM (inactive)
IC50 [9]: > 66 µM (inactive)
